Molecular target: Nucleic Acid
Assay: Concentration required for the inhibition of HIV- 1 Tat-derived peptide binding to TAR RNA.
Type: nucleic-acid assay

Molecule | IC50 [µM]
NC[C@@H]1O[C@H](O[C@H]2[C@@H](O)[C@H](O[C@@H]3[C@@H](O)[C@H](N)C[C@H](N)[C@H]3O[C@H]3O[C@H](CN)[C@@H](O)[C@H](O)[C@H]3N)O[C@@H]2CO)[C@H](N)[C@@H](O)[C@@H]1O [FRAMYCETIN] | 0.92
CN[C@@H]1[C@H](O[C@H]2[C@H](O[C@H]3[C@H](O)[C@@H](O)[C@H](N=C(N)N)[C@@H](O)[C@@H]3N=C(N)N)O[C@@H](C)[C@]2(O)C=O)O[C@@H](CO)[C@H](O)[C@H]1O [STREPTOMYCIN] | 9.5
GENTAMICIN | 45
